Reference: patent US8362000B2, “Azetidinyl diamides as monoacylglycerol lipase inhibitors” (Janssen Pharmaceutica NV, priority 2009, dated 2013)
Changes are numbered by the printed parent chain. Like-named read-outs stand apart in the source and are kept apart here.

Legend:
mutant MGL = target: T1, mutant MGL (Homo sapiens, UniProt Q99685, L169S/L176S); assay: MGL ThermoFluor assay - mutant; type: binding
T1 sequence (Q99685 1-303 L169S/L176S): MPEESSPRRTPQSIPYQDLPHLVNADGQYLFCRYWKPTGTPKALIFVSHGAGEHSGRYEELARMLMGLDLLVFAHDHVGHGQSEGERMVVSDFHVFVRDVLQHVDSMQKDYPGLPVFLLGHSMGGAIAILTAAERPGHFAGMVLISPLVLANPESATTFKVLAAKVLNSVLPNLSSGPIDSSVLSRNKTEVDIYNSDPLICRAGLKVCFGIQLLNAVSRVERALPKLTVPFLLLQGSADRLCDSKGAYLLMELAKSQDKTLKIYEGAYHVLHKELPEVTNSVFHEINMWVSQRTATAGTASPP

[1] = target: T2, purified wild type MGL (wt-MGLL 6H-11-313) (Homo sapiens, UniProt Q99685)
T2 sequence (Q99685 1-303): T1 sequence (Q99685 1-303 L169S/L176S) with S169L, S176L

MGL = target: T3, MGL (Rattus norvegicus, UniProt Q8R431); assay: 2-AG accumulation assay in rat brain homogenate; type: biochemical; settings: read-out: Rat Brain 2AG % VehCntrl (%) @ 1 μM
T3 construct: one g rat brain was homogenized using a Polytron homogenizer; from tissue; host or cells: rat brain homogenate
T3 sequence (Q8R431 1-303): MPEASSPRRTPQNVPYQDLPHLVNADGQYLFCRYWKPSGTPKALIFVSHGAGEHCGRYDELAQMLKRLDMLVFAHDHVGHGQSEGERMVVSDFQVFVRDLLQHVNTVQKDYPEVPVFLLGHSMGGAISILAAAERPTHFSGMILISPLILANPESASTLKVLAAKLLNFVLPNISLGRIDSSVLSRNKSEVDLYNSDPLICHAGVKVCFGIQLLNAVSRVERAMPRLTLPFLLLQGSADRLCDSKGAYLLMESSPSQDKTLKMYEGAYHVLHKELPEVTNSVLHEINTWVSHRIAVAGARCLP

[2] = ThermoFluor, compound concentration measured by qNMR, read-out: MGL mutant ThermoFluor qKd (μM) (using qNMR conc.)
[3] = rat brain homogenate, compound 1 μM, 2-AG accumulation as percent of vehicle
[4] = ThermoFluor concentration-response, read-out: MGL mutant ThermoFluor Kd
[5] = compound concentration measured by qNMR, read-out: MGL mutant ThermoFluor qKd (using qNMR conc.)
[6] = ThermoFluor thermal stability binding assay, read-out: MGL mutant ThermoFluor Kd

IC50 [1]	2-AG accumulation, % of vehicle control at 1 µM (MGL; [3])	Kd (mutant MGL; [4])	SMILES	also measured
< 0.005 µM	816%	–	O=C(c1nccs1)N1CCN(C2CN(C(=O)c3sc4cc(F)c(C(F)(F)F)cc4c3Cl)C2)CC1 [Cpd 901, 1-(1-{[3-Chloro-6-fluoro-5-(trifluoromethyl)-1-benzothiophen-2-yl]carbonyl}azetidin-3-yl)-4-(1,3-thiazol-2-ylcarbonyl)piperazine]	Kd (mutant MGL; [2]): 0.001 µM
< 0.005 µM	585%	–	O=C(c1nccs1)N1CCN(C2CN(C(=O)c3sc4c(C(F)(F)F)c(F)ccc4c3Cl)C2)CC1 [Cpd 902, 1-(1-{[3-chloro-6-fluoro-7-(trifluoromethyl)-1-benzothiophen-2-yl]carbonyl}azetidin-3-yl)-4-(1,3-thiazol-2-ylcarbonyl)piperazine]	Kd (mutant MGL; [2]): 0.004 µM
< 0.005 µM	861%	0.044 µM	O=C(c1ccc(COc2cccc(Cl)c2)cc1)N1CC(N2CCN(C(=O)c3cscn3)CC2)C1 [Cpd 959]	–
0.019 µM	360%	–	O=C(c1ccc(OCc2ccc3ccccc3n2)cc1)N1CC(N2CCN(C(=O)C(F)(F)F)CC2)C1 [Cpd 968]	Kd (mutant MGL; [5]): 1.46 µM
0.023 µM	683%	–	O=C(c1ccccc1)N1CCN(C2CN(C(=O)c3ccc(OCc4ccc(Cl)s4)cc3)C2)CC1 [Cpd 972]	Kd (mutant MGL; [6]): 0.08 µM
0.007 µM	570%	–	O=C(c1ccc(OCc2cncc(Cl)c2)cc1)N1CC(N2CCN(C(=O)c3nccs3)CC2)C1 [Cpd 978]	Kd (mutant MGL; [6]): 0.066 µM
< 0.005 µM	762%	0.01 µM	O=C(c1ccc(C(F)c2ccc(C(F)(F)F)cc2)cc1)N1CC(N2CCN(C(=O)c3nccs3)CC2)C1 (centres unmarked) [Cpd 982, 1-{1-[(4-{Fluoro[4-(trifluoromethyl)phenyl]methyl}phenyl)carbonyl]azetidin-3-yl}-4-(1,3-thiazol-2-ylcarbonyl)piperazine]	–
0.027 µM	180%	0.259 µM	O=C(c1ccc(F)c(Cc2ccc(C(F)(F)F)cc2)c1)N1CC(N2CCN(C(=O)c3nccs3)CC2)C1 [Cpd 1007, 1-[1-({4-Fluoro-3-[4-(trifluoromethyl)benzyl]phenyl}carbonyl)azetidin-3-yl]-4-(1,3-thiazol-2-ylcarbonyl)piperazine]	–
0.065 µM	706%	0.589 µM	Cc1c(Cc2ccc(C(F)(F)F)cc2)cccc1C(=O)N1CC(N2CCN(C(=O)c3cscn3)CC2)C1 [Cpd 1009]	–
< 0.005 µM	994%	0.124 µM	C/C(=C\c1ccc(Cl)cc1)c1c(C)c(C(=O)N2CC(N3CCN(C(=O)c4ccc[nH]4)CC3)C2)nn1-c1ccc(Cl)cc1Cl [Cpd 1011]	–
0.013 µM	173%	–	C/C(=C\c1ccc(Cl)cc1)c1c(C)c(C(=O)N2CC(N3CCN(C(=O)C(F)(F)F)CC3)C2)nn1-c1ccc(Cl)cc1Cl [Cpd 1012]	Kd (mutant MGL; [5]): 3.34 µM
0.035 µM	307%	0.049 µM	O=C(c1ccccc1)c1ccc(C(=O)N2CC(N3CCN(C(=O)c4nccs4)CC3)C2)cc1 [Cpd 1017]	–
0.006 µM	287%	0.166 µM	O=C(c1ccc[nH]1)N1CCN(C2CN(C(=O)c3nn(-c4ccc(Cl)cc4Cl)c4c3CCC/C4=C\c3ccc(Cl)cc3)C2)CC1 [Cpd 1019]	Kd (mutant MGL; [5]): 0.132 µM
0.015 µM	232%	0.239 µM	O=C(c1nccs1)N1CCN(C2CN(C(=O)c3nn(-c4ccc(Cl)cc4Cl)c4c3CSC/C4=C\c3ccc(F)cc3)C2)CC1 [Cpd 1021]	–
0.067 µM	189%	0.228 µM	O=C(c1nn(-c2ccc(Cl)cc2Cl)c2c1CSC/C2=C\c1ccc(F)cc1)N1CC(N2CCN(C(=O)C(F)(F)F)CC2)C1 [Cpd 1022]	Kd (mutant MGL; [5]): 1.06 µM
0.041 µM	262%	0.143 µM	O=C(c1cscn1)N1CCN(C2CN(C(=O)c3nn(-c4ccc(Cl)cc4Cl)c4c3CCC/C4=C\c3ccc(Cl)cc3)C2)CC1 [Cpd 1023]	–

IC50 [1]	2-AG accumulation, % of vehicle control at 1 µM (MGL; [3])	Kd (mutant MGL; [4])	SMILES	also measured
0.069 µM	281%	–	O=C(c1ccc[nH]1)N1CCN(C2CN(C(=O)c3nn(-c4ccc(Cl)cc4Cl)c4c3CSC/C4=C\c3ccc(F)cc3)C2)CC1 [Cpd 1024]	Kd (mutant MGL; [5]): 0.135 µM
0.019 µM	851%	–	O=C(c1ccc(F)cc1)c1c[nH]c2cc(C(=O)N3CC(N4CCN(C(=O)c5nccs5)CC4)C3)ccc12 [Cpd 1025]	Kd (mutant MGL; [5]): 0.066 µM
0.014 µM	785%	–	Cn1cc(Cc2ccc(F)cc2)c2ccc(C(=O)N3CC(N4CCN(C(=O)c5cscn5)CC4)C3)cc21 [Cpd 1027]	Kd (mutant MGL; [5]): 0.012 µM
0.016 µM	647%	–	Cn1cc(Cc2ccc(F)cc2)c2ccc(C(=O)N3CC(N4CCN(C(=O)c5ccc[nH]5)CC4)C3)cc21 [Cpd 1028]	Kd (mutant MGL; [5]): 0.011 µM
0.005 µM	701%	–	O=C(c1ccc2c(ccn2-c2cc(F)c(F)c(F)c2)c1)N1CC(N2CCN(C(=O)c3cscn3)CC2)C1 [Cpd 1055]	Kd (mutant MGL; [2]): 0.02 µM
0.006 µM	498%	–	O=C(c1cnc2c(ccn2-c2ccc(F)cc2)c1)N1CC(N2CCN(C(=O)c3nccs3)CC2)C1 [Cpd 1056]	Kd (mutant MGL; [2]): 0.012 µM
0.006 µM	590%	0.007 µM	Cc1c(C(=O)N2CC(N3CCN(C(=O)c4cscn4)CC3)C2)sc2ccc(-c3ccccc3)cc12 [Cpd 1058, 1-{1-[(3-Methyl-5-phenyl-1-benzothiophen-2-yl)carbonyl]azetidin-3-yl}-4-(1,3-thiazol-4-ylcarbonyl)piperazine]	–
0.006 µM	507%	–	Cc1sc(C(=O)N2CC(N3CCN(C(=O)c4nccs4)CC3)C2)cc1-c1cccc(F)c1 [Cpd 1059]	Kd (mutant MGL; [2]): 0.066 µM
0.006 µM	671%	–	Cn1ccc2cc(C(=O)N3CC(N4CCN(C(=O)c5nccs5)CC4)C3)cc(-c3cccc(C(F)(F)F)c3)c21 [Cpd 1060]	Kd (mutant MGL; [2]): 0.032 µM
0.007 µM	451%	–	O=C(c1ccc2c(ccn2-c2ccc(C(F)(F)F)nc2)c1)N1CC(N2CCN(C(=O)c3ccc[nH]3)CC2)C1 [Cpd 1062, 5-({3-[4-(1H-Pyrrol-2-ylcarbonyl)piperazin-1-yl]azetidin-1-yl}carbonyl)-1-[6-(trifluoromethyl)pyridin-3-yl]-1H-indole]	Kd (mutant MGL; ThermoFluor, compound concentration measured by qNMR, read-out: MGL mutant ThermoFluor qKd (using qNMR conc.)): 0.1 µM
0.007 µM	846%	0.003 µM	O=C(c1nccs1)N1CCN(C2CN(C(=O)c3sc4cc(-c5ccc(C(F)(F)F)cc5)ccc4c3F)C2)CC1 [Cpd 1063]	–
0.007 µM	531%	–	Cc1cc(C(=O)N2CC(N3CCN(C(=O)c4nccs4)CC3)C2)sc1-c1cccc(F)c1 [Cpd 1065]	Kd (mutant MGL; [2]): 0.036 µM
0.007 µM	609%	–	Cn1ccc2cc(C(=O)N3CC(N4CCN(C(=O)c5nccs5)CC4)C3)cc(-c3cccc(F)c3)c21 [Cpd 1066]	Kd (mutant MGL; [2]): 0.031 µM
0.007 µM	408%	0.007 µM	O=C(c1ccc(-c2cccc(C(F)(F)F)c2)cc1)N1CCN(C2CN(C(=O)c3cscn3)C2)CC1 [Cpd 1067, 1-[1-(1,3-Thiazol-4-ylcarbonyl)azetidin-3-yl]-4-{[3′-(trifluoromethyl)biphenyl-4-yl]carbonyl}piperazine]	–
0.007 µM	849%	–	Cc1cn(-c2cccc(OC(F)(F)F)c2)c2ccc(C(=O)N3CC(N4CCN(C(=O)c5nccs5)CC4)C3)cc12 [Cpd 1068]	Kd (mutant MGL; [2]): 0.002 µM

SMILES	IC50 [1]	2-AG accumulation, % of vehicle control at 1 µM (MGL; [3])	Kd (mutant MGL; [4])	also measured
O=C(c1nn(-c2ccc(Cl)cc2Cl)c2c1CCC/C2=C\c1ccc(Cl)cc1)N1CC(N2CCN(C(=O)C(F)(F)F)CC2)C1 [Cpd 1020]	0.063 µM	–	–	Kd (mutant MGL; MGL mutant ThermoFluor Kd, ThermoFluor concentration-response): 3 µM; 2-AG accumulation, % of vehicle control at 1 µM (MGL): 135%
